Measured values reported in patent US20160339187A1, “DEVICES AND METHODS FOR CONTROLLED DRUG DELIVERY OF WET AEROSOLS” (THE RESEARCH FOUNDATION FOR THE STATE UNIVERSITY OF NEW YORK, priority 2014, published 2016).

Columns and labels:
[1] = 15 normal subjects, Aeroneb nebulizer with Idehaler; cited from earlier work
[2] = Gamma camera deposition in patients inhaling aerosol during tidal breathing from AeroTech II nebulizers; type: in vivo, human; conditions: group of patients, AeroTech II type nebulizers

upper airway deposition as a percentage of total deposition [2]	SMILES	oropharyngeal activity (average) [1]
–	NCC[C@H](O)C(=O)N[C@@H]1C[C@H](N)[C@@H](O[C@H]2O[C@H](CN)[C@@H](O)[C@H](O)[C@H]2O)[C@H](O)[C@H]1O[C@H]1O[C@H](CO)[C@@H](O)[C@H](N)[C@H]1O [amikacin]	29.4±7.4%
≤ 5%	N=C(N)c1ccc(OCCCCCOc2ccc(C(=N)N)cc2)cc1 [pentamidine]	–
